Data as given in paper doi:10.1101/2022.07.11.499659v1 (bioRxiv, 2022).

Legend:
[1] = target: T1, α-Synuclein (αS) aggregation (Homo sapiens, UniProt P37840); experiment: Spin-down assay / SDS-PAGE of soluble and insoluble αS fractions; assay type: biochemical; conditions: 100 μM αS aggregated four days, indicated molar ratios
[2] = target: T1, α-Synuclein (αS) aggregation; experiment: Thioflavin T; assay type: biochemical; conditions: 100 μM αS in 1 × PBS, ligand at equimolar ratio, four days
[3] = system: NL5901 worms (αS-YFP in body wall muscle cells); experiment: Confocal count of αS-YFP inclusions in NL5901 worms; assay type: in vivo, C. elegans; conditions: NL5901, 50 μM on day two
αS = αS (Homo sapiens, UniProt P37840); experiment: 2D HSQC; assay type: binding; conditions: 70 μM 15N αS, NS132 equimolar
[4] = system: UA196 worms (human αS and GFP in DA neurons); experiment: Confocal count of healthy DA neurons in UA196 worms, early treatment; assay type: in vivo, C. elegans; conditions: UA196, 50 μM on day two

Antagonist activity by SDS-PAGE analysis [1]	Effect on αS aggregation, ThT assay [2]	binding site of NS132 on αS (residues with changed amide peaks) (αS)	Structure (SMILES)	number of inclusions [3]	neuroprotective effect on degeneration of DA neurons [4]	% loss of the total number of DA neurons ([4]; up to 15 days) [%]
poor antagonist of αS aggregation			Cc1ccc(NC(=O)c2ccc(NC(=O)c3ccc([N+](=O)[O-])c(NCCc4c[nH]c5ccccc45)n3)c(NCC3CCCCC3)n2)c(OCC(=O)OC(C)(C)C)n1 [NS132-P]			
	most potent antagonist	residues 10-20, 36-43, and 50,55,59	Cc1ccc(NC(=O)c2ccc(NC(=O)c3ccc([N+](=O)[O-])c(NCCc4c[nH]c5ccccc45)n3)c(NCC3CCCCC3)n2)c(OCC(=O)O)n1 [NS132]	decrease in the number of inclusions	very good neuroprotective effect	
	potent antagonist of αS aggregation		Cc1ccc(NC(=O)c2ccc(NC(=O)c3ccc([N+](=O)[O-])c(NCCc4c[nH]c5ccccc45)n3)c(NCC3CCCCC3)n2)c(OCC(=O)NO)n1 [NS163]		remarkable neuroprotective effect	< 5
